Laboratory results from ChEMBL document CHEMBL1201862, “PubChem BioAssay data set” (2004).
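In this assay, cells in 96-well plates receive the compound at five concentrations for 48 hours. Endpoints are linearly interpolated between the surrounding concentrations. GI50 is the concentration that inhibits growth by half.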 Active and inactive are the calls of the source. Cut-off read from the data, not from the text of the source: active = GI50 up to about 1.1 µM and inactive = higher.

How the values were obtained:
Assay in all cases: growth of human tumour cells (NCI), 48 h
HOP-62 = system: HOP-62
SK-MEL-2 = system: SK-MEL-2
ACHN = system: ACHN
NCI-H23 = system: NCI-H23
DMS-273 = system: DMS-273
SNB-75 = system: SNB-75
SR = system: SR
K562 = system: K562
Malme-3M = system: Malme-3M
HCT-116 = system: HCT-116
HT-29 = system: HT-29
NCI-H522 = system: NCI-H522
M14 = system: M14
TK-10 = system: TK-10
SN12C = system: SN12C
EKVX = system: EKVX
CCRF-CEM = system: CCRF-CEM
Hs-578T = system: Hs-578T
MDA-MB-435 = system: MDA-MB-435

Measured: GI50

O=C1C(=O)N(c2ccc(Cl)c(Cl)c2)C(=O)C(=O)C1c1nc2ccccc2o1
inactive: HOP-62 > 100 µM | SK-MEL-2 > 100 µM | ACHN > 100 µM | NCI-H23 68.7 µM | DMS-273 70.3 µM | SNB-75 > 100 µM | SR 30 µM | K562 36.6 µM | Malme-3M 87.9 µM | HCT-116 34.1 µM | HT-29 41.6 µM | NCI-H522 57.4 µM | M14 80.4 µM | TK-10 > 100 µM | SN12C 94.6 µM

CC(C)C(Sc1nc(-c2ccccc2)c(-c2ccccc2)[nH]1)C(=O)N/N=C/c1ccc(Cl)cc1 (centres undefined)
inactive: HOP-62 23.2 µM | SK-MEL-2 17.5 µM | ACHN 31.9 µM | EKVX 22.1 µM | NCI-H23 22.3 µM | CCRF-CEM 21.7 µM | DMS-273 18.2 µM | SNB-75 29.3 µM | SR 32.4 µM | Malme-3M 23.7 µM | HCT-116 15.8 µM | HT-29 14.9 µM | NCI-H522 20.7 µM | M14 17.7 µM | TK-10 21.5 µM | SN12C 17.5 µM

C#CCOCn1cnc2c(N)ncnc21
inactive: HOP-62 > 100 µM | SK-MEL-2 > 100 µM | ACHN > 100 µM | EKVX > 100 µM | NCI-H23 > 100 µM | CCRF-CEM > 100 µM | DMS-273 > 100 µM | SNB-75 > 100 µM | SR > 100 µM | K562 > 100 µM | Malme-3M > 100 µM | HCT-116 > 100 µM | HT-29 > 100 µM | NCI-H522 > 100 µM | M14 > 100 µM | TK-10 > 100 µM | SN12C > 100 µM

Cc1nc2ccccc2nc1NS(=O)(=O)c1ccc(N)cc1
inactive: HOP-62 > 100 µM | SK-MEL-2 > 100 µM | ACHN > 100 µM | EKVX > 100 µM | NCI-H23 > 100 µM | CCRF-CEM > 100 µM | DMS-273 > 100 µM | SNB-75 50.9 µM | SR > 100 µM | K562 > 100 µM | Malme-3M > 100 µM | HT-29 > 100 µM | NCI-H522 > 100 µM | M14 > 100 µM | TK-10 > 100 µM | SN12C > 100 µM

S=P(N1CCCC1)(N1CC1)N1CC1
inactive: HOP-62 > 100 µM | SK-MEL-2 > 100 µM | ACHN 71.6 µM | EKVX > 100 µM | NCI-H23 > 100 µM | CCRF-CEM 73.1 µM | DMS-273 > 100 µM | SNB-75 > 100 µM | SR 83.8 µM | K562 > 100 µM | Malme-3M > 100 µM | HCT-116 > 100 µM | HT-29 > 100 µM | NCI-H522 83.9 µM | M14 > 100 µM | TK-10 > 100 µM | SN12C > 100 µM

CCC1(c2c(F)c(F)c(N)c(F)c2F)CCC(=O)NC1=O (centres undefined)
inactive: HOP-62 > 100 µM | SK-MEL-2 > 100 µM | ACHN > 100 µM | EKVX > 100 µM | NCI-H23 > 100 µM | CCRF-CEM > 100 µM | DMS-273 > 100 µM | SNB-75 38.7 µM | SR > 100 µM | K562 > 100 µM | Malme-3M > 100 µM | HCT-116 > 100 µM | HT-29 > 100 µM | NCI-H522 > 100 µM | M14 > 100 µM | TK-10 > 100 µM

COC(=O)C1=CC(=O)[C@@H]2CCCC[C@H]12
inactive: HOP-62 > 100 µM | SK-MEL-2 > 100 µM | ACHN > 100 µM | CCRF-CEM > 100 µM | DMS-273 > 100 µM | SNB-75 > 100 µM | SR > 100 µM | K562 > 100 µM | Malme-3M > 100 µM | HCT-116 > 100 µM | NCI-H522 > 100 µM | M14 > 100 µM | TK-10 > 100 µM | SN12C > 100 µM

O=C(CC(=O)n1nc(-c2ccccc2)c(/N=N/c2ccccc2Cl)c1-c1ccccc1)Nc1ccc(Cl)cc1
inactive: HOP-62 > 100 µM | SK-MEL-2 > 100 µM | ACHN > 100 µM | EKVX > 100 µM | NCI-H23 > 100 µM | CCRF-CEM > 44.9 µM | DMS-273 > 64.3 µM | SNB-75 > 100 µM | SR > 100 µM | K562 > 53.1 µM | Malme-3M > 100 µM | HCT-116 > 41.3 µM | HT-29 > 54.6 µM | NCI-H522 > 100 µM | M14 > 100 µM | TK-10 > 96.2 µM | SN12C > 100 µM

CC1=CC2C(=O)N(c3ccccc3)C(=O)C2CC1n1[nH]c(=O)n(Cc2ccccc2)c1=O (centres undefined)
inactive: HOP-62 > 100 µM | SK-MEL-2 > 100 µM | ACHN > 100 µM | EKVX > 100 µM | NCI-H23 > 100 µM | CCRF-CEM > 100 µM | DMS-273 > 100 µM | SNB-75 > 100 µM | SR > 100 µM | K562 > 100 µM | Malme-3M > 100 µM | HCT-116 > 100 µM | HT-29 > 100 µM | NCI-H522 > 100 µM | M14 > 100 µM | TK-10 > 100 µM | SN12C > 100 µM

Nc1nc(O)c([N+](=O)[O-])c(NCCOCP(=O)(O)O)n1
inactive: HOP-62 > 100 µM | SK-MEL-2 > 100 µM | ACHN > 100 µM | EKVX > 100 µM | NCI-H23 > 100 µM | CCRF-CEM > 100 µM | DMS-273 > 100 µM | SNB-75 > 100 µM | SR > 100 µM | K562 > 100 µM | Malme-3M > 100 µM | HCT-116 > 100 µM | HT-29 > 100 µM | NCI-H522 > 100 µM | M14 > 100 µM | TK-10 > 100 µM | SN12C > 100 µM

CN(CO)c1nc(N(C)CO)nc(N(C)CO)n1 [TRIMELAMOL]
inactive: HOP-62 20 µM | ACHN 27.5 µM | EKVX 19.7 µM | NCI-H23 19.3 µM | CCRF-CEM 5.78 µM | Hs-578T 27.8 µM | DMS-273 7.6 µM | SNB-75 18.5 µM | SR 39.6 µM | K562 18.7 µM | Malme-3M 12.8 µM | HT-29 23 µM | NCI-H522 20.9 µM | MDA-MB-435 20.1 µM | M14 21.8 µM | TK-10 31.8 µM

N#CC(NNC(=O)c1ccccc1O)c1ccc(O)cc1 (centres undefined)
inactive: HOP-62 22.5 µM | SK-MEL-2 2.67 µM | ACHN 2.33 µM | NCI-H23 8.05 µM | CCRF-CEM 4.93 µM | DMS-273 3.32 µM | SNB-75 1.24 µM | SR 2.8 µM | K562 3.1 µM | Malme-3M 29.6 µM | HCT-116 3.33 µM | HT-29 28.1 µM | NCI-H522 12.8 µM | M14 6.93 µM | TK-10 39.5 µM | SN12C 18.6 µM
